From patent US11746100B2 (GLOBAL BLOOD THERAPEUTICS, INC., priority 2020, dated 2023) come the findings set out here.

The target of the experiment is T1, human ferroportin (Homo sapiens, UniProt Q9NP59).
T1 construct: luciferase reporter (read with the Nano-Glo Luciferase Assay System); expressed in transfected cells; host or cells: CHO cells, stably transfected, expression induced with doxycycline
T1 sequence (Q9NP59 1-571): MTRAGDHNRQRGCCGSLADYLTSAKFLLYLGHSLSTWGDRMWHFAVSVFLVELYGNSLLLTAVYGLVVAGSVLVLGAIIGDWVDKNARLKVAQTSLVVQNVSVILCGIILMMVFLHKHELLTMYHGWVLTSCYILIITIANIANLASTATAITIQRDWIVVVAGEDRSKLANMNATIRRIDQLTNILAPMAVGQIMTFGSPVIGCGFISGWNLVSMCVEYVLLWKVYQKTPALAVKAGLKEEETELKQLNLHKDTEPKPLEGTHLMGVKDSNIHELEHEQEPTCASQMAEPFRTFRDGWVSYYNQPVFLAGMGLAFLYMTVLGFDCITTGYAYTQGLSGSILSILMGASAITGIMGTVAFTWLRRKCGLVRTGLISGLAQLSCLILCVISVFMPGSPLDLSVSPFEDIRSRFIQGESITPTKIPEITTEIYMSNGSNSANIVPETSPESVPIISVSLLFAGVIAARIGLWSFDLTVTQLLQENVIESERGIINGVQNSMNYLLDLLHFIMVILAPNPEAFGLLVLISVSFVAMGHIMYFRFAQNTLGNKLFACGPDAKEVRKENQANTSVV
Description: Biological in-vitro ferroportin internalization assay (luciferase reporter). The class given is cell-based. Particulars: average pEC50; stably-transfected CHO cell line expressing human ferroportin tagged to a luciferase reporter; 6 h incubation with test compound. In a few lines: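 Read-out is Nano-Glo luciferase signal after 6 h compound exposure, with average pEC50 derived. Cells are a stable CHO line carrying luciferase-tagged human ferroportin, pre-loaded 24 h with ferric ammonium citrate and doxycycline-induced for 24 h.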

The pEC50 is the EC50 on a negative log10 scale, so that one unit is a factor of ten. A high value points to a low EC50.

The molecule `CN(C)CCOc1ccnc(-c2nc3c(c(N(C)CC(=O)NC(C)(C)C)n2)C(O)CC3)c1` (centres unmarked) [Compound 493, N-tert-butyl-2-[(2-{4-[2-(dimethylamino)ethoxy]pyridin-2-yl}-5-hydroxy-5H,6H,7H-cyclopenta[d]pyrimidin-4-yl)(methyl)amino]acetamide] returned a pEC50 of 6.9.
Consider `CN(C)CCOc1ccnc(-c2nc3c(c(N(C)CC(=O)NC(C)(C)C)n2)CCC3O)c1` (centres unmarked) [Compound 494, N-tert-butyl-2-[(2-{4-[2-(dimethylamino)ethoxy]pyridin-2-yl}-7-hydroxy-5H,6H,7H-cyclopenta[d]pyrimidin-4-yl)(methyl)amino]acetamide], for which the pEC50 was determined as 6.3.
`CN(C)CCOc1ccnc(-c2cc(N(C)CC(=O)NC(C)(C)C)c3c(n2)CCC3)c1` [Compound 495, N-tert-butyl-2-[(2-{4-[2-(dimethylamino)ethoxy]pyridin-2-yl}-5H,6H,7H-cyclopenta[b]pyridin-4-yl)(methyl)amino]acetamide] registered a pEC50 of 7.4.
`CCN1CC[C@@H](Oc2ccnc(-c3nc4c(c(N(C)CC(=O)NC(C)(C)C)n3)CCC4)c2)C1` [Compound 496, N-tert-butyl-2-{[2-(4-{[(3R)-1-ethylpyrrolidin-3-yl]oxy}pyridin-2-yl)-5H,6H,7H-cyclopenta[d]pyrimidin-4-yl](methyl)amino}acetamide] returned a pEC50 of 8.0.
With `CN(CC(=O)NC(C)(C)C)c1nc(-c2cc(O[C@@H]3CCN(CCF)C3)ccn2)nc2c1CCC2` [Compound 497, N-tert-butyl-2-{[2-(4-{[(3R)-1-(2-fluoroethyl)pyrrolidin-3-yl]oxy}pyridin-2-yl)-5H,6H,7H-cyclopenta[d]pyrimidin-4-yl](methyl)amino}acetamide] the figure was 8.2; with `CSc1ccnc(-c2nc3c(c(N(C)CC(=O)NC(C)(C)C)n2)CCC3)c1` [Compound 498, N-tert-butyl-2-[methyl({2-[4-(methylsulfanyl)pyridin-2-yl]-5H,6H,7H-cyclopenta[d]pyrimidin-4-yl})amino]acetamide], 7.5.
With `CN(C)CCSc1ccnc(-c2nc3c(c(N(C)CC(=O)NC(C)(C)C)n2)CCC3)c1` [Compound 499, N-tert-butyl-2-{[2-(4-{[2-(dimethylamino)ethyl]sulfanyl}pyridin-2-yl)-5H,6H,7H-cyclopenta[d]pyrimidin-4-yl](methyl)amino}acetamide] the figure was 8.2.
The molecule `CN(C)CCOc1ccnc(-c2nc3c(c(N(C)CC(=O)NC4CC4)n2)CCC3)c1` [Compound 500, N-cyclopropyl-2-[(2-{4-[2-(dimethylamino)ethoxy]pyridin-2-yl}-5H,6H,7H-cyclopenta[d]pyrimidin-4-yl)(methyl)amino]acetamide] yielded a pEC50 of 7.3.
In the case of `CN(CC(=O)NC(C)(C)C)c1nc(-c2cc(OCC(C)(C)O)ccn2)nc2c1CCC2=O` [Compound 501, N-tert-butyl-2-({2-[4-(2-hydroxy-2-methylpropoxy)pyridin-2-yl]-7-oxo-5H,6H,7H-cyclopenta[d]pyrimidin-4-yl}(methyl)amino)acetamide], the pEC50 turned out to be 6.4.
For `C[C@H]1C[C@@H](Oc2ccnc(-c3nc4c(c(N(C)CC(=O)NC(C)(C)C)n3)CCC4)c2)CN1C` [Compound 502, N-tert-butyl-2-{[2-(4-{[(3R,5S)-1,5-dimethylpyrrolidin-3-yl]oxy}pyridin-2-yl)-5H,6H,7H-cyclopenta[d]pyrimidin-4-yl](methyl)amino}acetamide], the pEC50 is 8.2.
On to `C[C@H](C(=O)NC(C)(C)C)N(C)c1nc(-c2cc(O[C@@H]3CCN(C)C3)ccn2)nc2c1CCC2` [Compound 503, (2R)—N-tert-butyl-2-{methyl[2-(4-{[(3R)-1-methylpyrrolidin-3-yl]oxy}pyridin-2-yl)-5H,6H,7H-cyclopenta[d]pyrimidin-4-yl]amino}propanamide], for which the pEC50 stood at 8.5.
The molecule `CC(C)NC(=O)[C@@H](C)N(C)c1nc(-c2cc(O[C@@H]3CCN(C)C3)ccn2)nc2c1CCC2` [Compound 504, (2R)-2-{methyl[2-(4-{[(3R)-1-methylpyrrolidin-3-yl]oxy}pyridin-2-yl)-5H,6H,7H-cyclopenta[d]pyrimidin-4-yl]amino}-N-(propan-2-yl)propanamide] displayed a pEC50 of 7.9.
As to `CC(C)NC(=O)CN(C)c1nc(-c2cc(OCCN3CCSCC3)ccn2)nc2c1CCC2` [Compound 505, 2-[methyl(2-{4-[2-(thiomorpholin-4-yl)ethoxy]pyridin-2-yl}-5H,6H,7H-cyclopenta[d]pyrimidin-4-yl)amino]-N-(propan-2-yl)acetamide], the pEC50 was 8.8.
In the case of `CSCCOc1ccnc(-c2nc3c(c(N(C)CC(=O)NC(C)(C)C)n2)CCC3)c1` [Compound 506, N-tert-butyl-2-[methyl(2-{4-[2-(methylsulfanyl)ethoxy]pyridin-2-yl}-5H,6H,7H-cyclopenta[d]pyrimidin-4-yl)amino]acetamide] it was 8.0.
In the case of `CN(CC(=O)NC(C)(C)C)c1nc(-c2cc(OCCS(C)(=O)=O)ccn2)nc2c1CCC2` [Compound 507, N-tert-butyl-2-({2-[4-(2-methanesulfonylethoxy)pyridin-2-yl]-5H,6H,7H-cyclopenta[d]pyrimidin-4-yl}(methyl)amino)acetamide] it was 7.9.
Take `[2H]C([2H])([2H])N(CCOc1ccnc(-c2nc3c(c(N(C)CC(=O)NC(C)(C)C)n2)CCC3)c1)C([2H])([2H])[2H]` [Compound 508, N-tert-butyl-2-{[2-(4-{2-[di(2H3)methylamino]ethoxy}pyridin-2-yl)-5H,6H,7H-cyclopenta[d]pyrimidin-4-yl](methyl)amino}acetamide]: the pEC50 is given as 7.6.
Molecule `[2H]C([2H])([2H])N(CC(=O)NC(C)(C)C)c1nc(-c2cc(OCC(C)(C)O)ccn2)nc2c1CCC2` [Compound 509, N-tert-butyl-2-({2-[4-(2-hydroxy-2-methylpropoxy)pyridin-2-yl]-5H,6H,7H-cyclopenta[d]pyrimidin-4-yl}((2H3)methyl)amino)acetamide] showed a pEC50 of 8.2.
